Measurements reported in patent US11034666B2, “Anti-inflammatory and antitumor 2-oxothiazoles and 2-oxothiophenes compounds” (Avexxin AS, priority 2013, dated 2021).

Experiments:
[1] = system: collagen-induced arthritis (CIA) mouse model; assay: Therapeutic collagen-induced arthritis (CIA) study; assay type: in vivo, male DBA/1 mice; conditions: Days 36 to 41; Compound A 30 mg/kg ip daily; Enbrel 25 mg/kg twice a week
Excerpt: The therapeutic effect of Compound A on CIA model in male DBA/1 mice following ip administration, treatment starting 7 days after the last immunization was explored. CIA developed rapidly in mice immunized with CII, with maximum AI of 10.2 observed at 39 days post immunization. The AI and incidence of vehicle- and Compound A treated groups increased in a time-dependent mode from Days 29 to 41. […] Compound A and Enbrel performed equally well; there were no significant difference between these treatments groups.
Separate prophylactic and therapeutic efficacy studies of COMPOUND A were performed. […] Body weights were measured and recorded prior to randomization and then once daily during the study. Food consumption was measured and recorded daily. […] Necropsy examinations were performed at study termination; plasma samples were collected, organ weights were recorded […]
CIA Assessment and Treatment. CIA was assessed in mice by two blinded observers to measure paw swelling with a capacity measurement method on Day 0, Day 20, Day 22, Day 25, Day 27, Day 29, Day 32, Day 34, Day 36, Day 39 and Day 41 after the first injection. […] However, the values measured were not included in the mean value calculations of the main groups. […]

[2] = system: MAS98.12 xenograft; assay: Patient-derived basal-like breast cancer xenograft, long-term treatment; assay type: in vivo, mouse
Procedure: As described more fully below, we conducted a study in a patient-derived xenograft model of basal-like breast cancer, which is responsive to […], is highly vascularised and has a high expression of cPLA2. The mice received 30 mg Compound A/kg bw by ip. injection daily for a 7 days, then every second day for 14 more days. A group of control mice received DMSO only. Tumor volumes were measured throughout the study period.
Mouse model: MAS98.12. This model is established from a primary breast carcinoma at the Institute for Cancer Research, OUS [10]. The MR Cancer Group has previously characterised this model both with respect to metabolic profile, vascularisation, response to antiangiogenic treatment and response to PI3K inhibition. Treatment was initiated when the xenograft tumors had reached a volume of 83±51 mm3 (tumor volume=d1×d2×[…]). The majority of mice had bilateral tumors.
Mice received 30 mg/kg bw COMPOUND A in 50 μl DMSO, through intraperitoneal injection. Control groups received volume-matched, drug-free DMSO injections. Tumor volume measured with electronic callipers from day −3 until the end of the experiment (Day 19).
Arm 2: Long-term treatment One group (n=6, 11 tumors) treated with COMPOUND A daily for 7 days, then every 2nd day for the remainder of the study. Controls (n=6, 10 tumors) treated with drug-free DMSO according to the same protocol. […] Throughout the study, the tumor volume was measured every 2-3 days, and the body weight of the mice was monitored regularly.

[3] = system: PGE2; assay: Plasma PGE2 EIA, prophylactic CIA study; assay type: in vivo, male DBA/1 mice
Procedure: PGE2 is recognized as an important contributor to the joint inflammation in rheumatoid arthritis,^60 and we investigated if plasma PGE2 levels were changed in response to treatment. […] There were no significant differences between the treatment groups (p>0.05).
(§1) PGE2 EIA analysis of blood plasma from the prophylactic and therapeutic CIA studies was performed according to kit protocol. Plasma samples were diluted 1:1000-1:6000 in EIA buffer and allowed to hybridize over-night (18 hrs, 4° C.). The plate was read using a Multiscan plate reader (Ascent Labsystems) (OD550 nm). The corresponding Ascent software for Multiscan, Version 2.4.1 was used to obtain the data. PGE2 levels for all treatments are shown relative to the DMSO-treated vehicle arthritic mice (n=10-11 mice in each category±SD).
(§2) For the prophylactic and the therapeutic studies, CIA was induced in male DBA/1 mice (except naïve mice) by immunization with 0.1 mL emulsion containing an equal volume of bovine type II collagen solution (2 mg/mL) and Freuds Complete Adjuvant at the tail base. The first injection was given on Day 0 and the second injection as booster was given on Day 21 (41-43). COMPOUND A, vehicle (DMSO) and MTX (0.3 mg/kg) were administered daily, Enbrel (25 mg/kg) was administrated twice a week. For the prophylactic study, treatment started one hour before the second collagen injection and continued for 21 days except for the histology groups that were sacrificed at Day 13 ([…]). For the therapeutic study, treatment started at Day 28 and continued for 14 days.

[4] = system: PGE2; assay: Plasma PGE2 EIA, therapeutic CIA study; assay type: in vivo, male DBA/1 mice
Procedure: There were no significant differences between the treatment groups (p>0.05).
as §1, §2

CCCCCCCCc1ccc(OCC(=O)c2nc(C(=O)OC)cs2)cc1 [Compound A, Methyl 2-(2-(4-octylphenoxy)acetyl)thiazole-4-carboxylate]
arthritic index (AI) in comparison to the CIA control group (in words) [1]: significantly decreased | tumor volume as % of the control tumors ([2]; 30 mg/kg bw ip daily for 7 days, then every second day for 14 more days, end of the study): 36% | tolerability (in words) ([2]; 30 mg/kg ip, long-term treatment): well tolerated with no overt adverse effects | body weight ([2]; 30 mg/kg ip, Day 5): 24 ± 3 g | body weight ([2]; 30 mg/kg ip, Day 19): 27 ± 3 g | maximal tumor diameter ([2]; 30 mg/kg ip, Day 19): 10.5 mm | effect on tumor growth (in words) ([2]; 30 mg/kg ip, FIG. 1): strong inhibitory effect on tumor growth | tumor volume ([2]; 30 mg/kg ip, end of the study (Day 19), control 759±401): 265±138 mm^3 | plasma PGE2 level ([3]; prophylactic CIA study, Compound A 7.5 mg/kg, MTX 0.3 mg/kg, vehicle 223.4±107, mean ± SD): 139.8 ± 92 ng/mL | reduction of plasma PGE2 levels ([3]; prophylactic mode, vs vehicle): about 40% | plasma PGE2 level ([4]; therapeutic CIA study, Compound A 30 mg/kg, Enbrel 25 mg/kg, vehicle 231.1±110, mean ± SD): 139 ± 55 ng/mL | reduction of plasma PGE2 levels ([4]; therapeutic mode, vs vehicle): about 40%
